Laboratory results from publication PMC10005967, “Discriminative binding of tau PET tracers PI2620, MK6240 and RO948 in Alzheimer’s disease, corticobasal degeneration and progressive supranuclear palsy brains” (Molecular Psychiatry, 2022).
“And” between values parts separate entries of the source, which are not always exact repeats. Equal values may be shown once. Read-outs that look alike come from different tables or passages of the source.

Legend:
[1] = molecular target: tau, AD FC brain homogenates (Homo sapiens, UniProt P10636); test: ^3H-PI2620 competitive binding assay in AD frontal cortex brain homogenates; details: for proportion of HA binding sites / proportion of SHA binding sites: vs 0.6 nM ^3H-PI2620; for IC50: vs 0.6 nM ^3H-PI2620, 2-site competition model
Chain of tau, AD FC brain homogenates (P10636 623-708 limits assumed): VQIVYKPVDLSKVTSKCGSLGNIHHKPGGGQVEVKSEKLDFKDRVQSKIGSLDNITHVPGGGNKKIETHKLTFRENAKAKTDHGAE
Experimental: (§1) Frozen human brain tissue from eleven AD, five CBD, four PSP and eight control patients was provided by the Netherlands Brain Bank (Amsterdam, Netherlands). Frozen human brain tissue from PSP case number 26 was provided by Professor Bernadino Ghetti, the Neuropathology of Dementia Laboratory, Indiana University School of Medicine (Indianapolis, IN, USA) (see Table 1 for demographic data). Brain homogenates were prepared by homogenising the brain tissue in phosphate buffer saline (PBS; pH 7.4) containing 0.1% BSA (250 mg tissue/mL) and protease/phosphatase inhibitors (10 μL/mL); aliquots were stored at −80 °C until used in the binding experiments.
Competitive binding assays on four AD FC brain homogenates [two early-onset (EO) AD and two late-onset (LO) AD; 0.5 mg tissue] were performed using 0.6 nM of ^3H-PI2620 and increasing concentrations (1 × 10^−18 M to 1 × 10^−6 M) of unlabelled PI2620, unlabelled MK6240 and unlabelled RO948 for 2 h at RT. The binding assay was accomplished as described above. The half-maximal inhibitory concentration (IC50) was measured using the 2-site competition model in GraphPad Prism 9 software.

[2] = tested on: tau, AD brain homogenates; details: cited from earlier work; for high-affinity (HA) binding site: AD brain homogenates
[3] = tested on: tau, post-mortem PSP brain tissue; details: cited from earlier work
tau, CBD FC homogenates = tau, CBD FC homogenates (Homo sapiens, UniProt P10636); test: ^3H-PI2620 competitive binding assay in CBD frontal cortex brain homogenates
Chain of tau, CBD FC homogenates (P10636 561-697 limits assumed): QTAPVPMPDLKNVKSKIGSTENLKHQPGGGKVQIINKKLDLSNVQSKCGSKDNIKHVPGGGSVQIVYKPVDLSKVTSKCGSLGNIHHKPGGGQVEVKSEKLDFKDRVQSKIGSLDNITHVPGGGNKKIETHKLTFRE
Experimental: as §1
(§2) Competitive binding assays were also carried out under the same conditions, on three PSP FC homogenates and three CBD FC homogenates using 0.6 nM and 1 nM of ^3H-PI2620, respectively, in the presence of increasing concentrations of unlabelled PI2620 (1 × 10^−18 M to 1 × 10^−6 M). The 2-site competition model in GraphPad Prism 9 software was used to plot the AD, CBD, and PSP data.

tau, PSP FC homogenates = tau, PSP FC homogenates (Homo sapiens, UniProt P10636); test: ^3H-PI2620 competitive binding assay in PSP frontal cortex brain homogenates; details: vs 0.6 nM ^3H-PI2620, only one binding site
Chain of tau, PSP FC homogenates (P10636 561-698 limits assumed): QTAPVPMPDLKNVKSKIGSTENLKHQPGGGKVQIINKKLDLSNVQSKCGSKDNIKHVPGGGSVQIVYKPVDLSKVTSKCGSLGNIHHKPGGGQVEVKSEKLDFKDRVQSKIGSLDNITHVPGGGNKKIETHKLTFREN
Experimental: as §1, §2

[4] = read-out: IC50(1), super-high affinity (SHA) site
[5] = read-out: IC50(2), high affinity (HA) site

Row | Compound | proportion of HA binding sites [1] | proportion of SHA binding sites [1] | IC50 [1, 4] [nM] | IC50 [1, 5] [nM] | high-affinity (HA) binding site [2] [nM] | in vitro binding using autoradiography [3] | proportion of HA binding sites (tau, CBD FC homogenates; vs 1 nM ^3H-PI2620) [%] | proportion of SHA binding sites (tau, CBD FC homogenates; vs 1 nM ^3H-PI2620) [%] | IC50 (tau, CBD FC homogenates; vs 1 nM ^3H-PI2620, read-out: IC50(1), SHA site) [nM] | IC50 (tau, CBD FC homogenates; vs 1 nM ^3H-PI2620, read-out: IC50(2), HA site) [nM] | IC50 (tau, PSP FC homogenates) [nM] | HA site ([2]; AD hippocampus, ^3H-MK6240) [nM] | super-high affinity (SHA) site ([2]; AD hippocampus, ^3H-MK6240) [pM] | proportion of HA site ([2]; AD hippocampus) [%] | proportion of SHA site ([2]; AD hippocampus) [%]
1 | Fc1ccc(-c2ccc3c(n2)[nH]c2cnccc23)cn1 [RO948] | > 70% and 79% | > 20% and 21% | 0.0058 | 6.8 | 18 | – | – | – | – | – | – | – | – | – | –
2 | Fc1ccc(-c2ccc3c(c2)[nH]c2ccncc23)cn1 [^18F-AV-1451] | – | – | – | – | – | no in vitro binding | – | – | – | – | – | – | – | – | –
3 | Fc1cc(-c2ccc3c(n2)[nH]c2ccncc23)ccn1 [PI2620] | > 70% and 77% | > 20% and 23% | 0.0081 | 4.9 | 8.5 | – | 54 | 46 | 0.0056 | 7.7 | 2.5 | – | – | – | –
4 | Nc1c(F)ccc2cnc(-n3ccc4ccncc43)cc12 [MK6240] | > 70% and 76% | > 20% and 24% | 0.0027 | 4.5 | 0.15 to 0.32 | – | – | – | – | – | – | 12 | 1 | 42 | 58
